# Results reported in US9981023B2, “Compositions and methods for inducing immune tolerance” (The Scripps Research Institute, priority 2010, dated 2018).
# Biological target: T1, CD22 (Mus musculus, UniProt P35329)
# T1 sequence (P35329 22-868): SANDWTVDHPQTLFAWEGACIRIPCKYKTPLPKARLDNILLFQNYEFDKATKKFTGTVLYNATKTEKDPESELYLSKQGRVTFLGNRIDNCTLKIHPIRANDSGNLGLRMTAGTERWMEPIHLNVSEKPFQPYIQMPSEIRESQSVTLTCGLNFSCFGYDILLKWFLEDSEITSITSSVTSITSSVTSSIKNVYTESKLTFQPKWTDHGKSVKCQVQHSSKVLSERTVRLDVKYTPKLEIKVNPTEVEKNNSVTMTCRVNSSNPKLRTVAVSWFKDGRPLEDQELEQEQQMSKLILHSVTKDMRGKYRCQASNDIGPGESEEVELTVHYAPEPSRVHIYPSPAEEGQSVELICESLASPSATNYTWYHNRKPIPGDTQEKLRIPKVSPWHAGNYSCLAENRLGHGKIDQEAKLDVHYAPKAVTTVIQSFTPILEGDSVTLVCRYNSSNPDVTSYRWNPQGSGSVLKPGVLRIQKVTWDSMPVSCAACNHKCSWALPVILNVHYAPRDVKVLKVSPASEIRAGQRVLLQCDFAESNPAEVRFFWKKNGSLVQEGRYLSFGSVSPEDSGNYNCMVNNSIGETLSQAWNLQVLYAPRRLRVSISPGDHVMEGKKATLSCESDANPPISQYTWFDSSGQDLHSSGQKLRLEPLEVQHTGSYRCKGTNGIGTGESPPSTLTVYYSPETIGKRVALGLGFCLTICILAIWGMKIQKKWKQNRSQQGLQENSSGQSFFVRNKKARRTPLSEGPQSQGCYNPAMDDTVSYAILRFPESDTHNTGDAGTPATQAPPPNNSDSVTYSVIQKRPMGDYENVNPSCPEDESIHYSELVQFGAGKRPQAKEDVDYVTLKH
# Experiment: Affinity of glycan ligand for CD22
# Format: binding
# Settings: natural ligand of CD22 relative to ^BPANeuGc
smiles,measurement,value
CC(=O)NC1C(O)OC(CO)C(OC2OC(COC3(C(=O)O)CC(O)C(NC(=O)CO)C(C(O)C(O)CO)O3)C(O)C(O)C2O)C1O (stereo not shown) [NeuGcα2-6Galβ1-4GlcNAc],affinity lower than the ^BPANeuGc ligand,approximately 200 fold
